Key:
wild-type mice = assay: Plasma and hepatic lipid analysis in wild-type mice; assay type: in vivo, mouse; details: 7 d
Experimental: FIG. 10. Agonist T0901317-mediated increases in hepatic and plasma triglyceride levels and lipogenic mRNA requires LXRs. Analysis of the lipid content of livers and plasma from vehicle- and T0901317-created wild-type and LXRα/β-/- mice (n=5 for each of the four groups shown, treatment for 7 d). Pooled plasma (50 μL from each of five mice per group) was fractionated and lipids analyzed as described. Shown are the concentrations for (A) FPLC triglyceride, (B) FPLC phospholipid, and (C) hepatic triglyceride. (D) Northern blot analysis of hepatic SREEP-I, SREBP-2, SCD-1, FAS, and ACC mRNA levels.
C57BL/6 mice (Charles River Laboratories) were between 6 and 10 wk old and weighed ˜20-30 g at the initiation of treatment. Golden Syrian Hamsters (Harlan Sprague-Dawley) were between 12 and 16 wk old (80-150 g). Animals were fed regular chow diets containing ˜4% fat and 0.02% cholesterol (PMI Pi-colab 5053 Chow). LXRα and β−/− mice were reared at the University of Texas Southwestern (UTSW) Medical Center at Dallas in accordance with the Institutional Animal Care and Research Advisory Committee at the UTSW Medical Center. Mice at UTSW were maintained on a 12 h light/12 h dark cycle and fed ad libitum a cereal-based mouse chow diet (No. 7001, Harlan Teklad).
Plasma was prepared from euthanized mice using standard centrifugation techniques and analyzed for plasma total cholesterol, HDL cholesterol, and triglyceride concentrations using a Hitachi 704 Clinical Analyzer. FPLC of plasma lipoproteins was accomplished using 200 μL aliquots of pooled plasma (from three to five animals) and fractionated on Superose 6 columns (Pharmacia). Cholesterol, triglyceride, and phospholipid concentrations in the fractions were determined enzymatically with reagents from Boehringer, Sigma, and Wako, respectively. Hepatic lipids were extracted and analyzed for triglyceride essentially as described (Bucolo, G. and David, H., Clin. Chem. 19:476-482 (1973); Yokode et al., Science 250:1273-1275 (1990)).

[1] = tested on: LXRα/β−/− mice liver mRNA; assay: Northern blot analysis of hepatic mRNA in LXRα/β−/− mice; assay type: in vivo, mouse
Experimental: FIG. 10. […] Pooled plasma (50 μL from each of five mice per group) was fractionated and lipids analyzed as described. Shown are the concentrations for (A) FPLC triglyceride, (B) FPLC phospholipid, and (C) hepatic triglyceride. (D) Northern blot analysis of hepatic SREEP-I, SREBP-2, SCD-1, FAS, and ACC mRNA levels.

HepG2 cells and mice = assay: Gene expression microarrays (GEM) of LXR agonist-treated HepG2 cells and mice; assay type: in vivo, mouse; details: fold increase vs control; mice 5 mg/kg p.o. 7 d
Experimental: Total RNA extraction and purification for Northern blot analysis was accomplished using the TRI reagent (Molecular Research Center).
To understand the mechanism whereby LXR agonist increased plasma triglycerides, changes in global gene expression in response to LXR agonist treatment were assessed by gene expression micrarrays (GEM) and Northern blot analysis. The GEM experiments were carried out using RNA derived from control and LXR agonist-treated HepG2 cells and mice. […] In addition, a prominent subset of >20 fatty acid metabolism-associated genes was increased by LXR agonist. This subset included fatty acid synthase, carnitine palmitoyltransferase 1, acyl-CoA-binding protein, acyl glycerol-3 phosphate acyltransferase, fatty acid amide hydrolase, acyl carrier protein, fatty acid binding and transport proteins, and colipase, a small protein cofactor required by lipase for the efficient hydrolysis of dietary lipid. Up-regulation of liver and intestinal phosphoethanolamine cytidylyltransferase, a key regulatory enzyme in the CDP-ethanolamine pathway for phosphatidylethanolamine synthesis, was also noted.

mouse liver mRNA = assay: Northern blot analysis of hepatic gene expression in treated mice; assay type: in vivo
Experimental: FIG. 9. Northern blot analysis. Total RNA was isolated from the tissues indicated from mice (A,B,C) and hamsters (D). The numerical data shown with each figure represents the fold increase (+) or decrease (-) of expression relative to corresponding vehicle-treated controls. (E) HepG2 cells were incubated in culture media with or without cycloheximide (cyclohex). Total RNA extraction and purification for Northern blot analysis was accomplished using the TRI reagent (Molecular Research Center). […] Mouse gene expression was assessed by Northern blot analysis using random primed, ^32P-labeled, cDNA probes that were generated using the primers described in FIG. 11. Hybridization signals were quantified using a phosphoimager (Molecular Dynamics) and standardized against GAPDH controls. Mouse cDNA probes for the numerous genes analyzed were prepared using primers from mouse liver or intestinal cDNA as template. The SREBP-2 cDNA was a gift from J. D. Horton (University of Texas Southwestern Medical Center, Dallas); mouse and hamster CYP7[…]. W. Russell (University of Texas Southwestern Medical Center, Dallas). SCD-1 was a gift from J. Ntambi (University of Wisconsin, Madison), and apoD was kindly provided by […] (University of Quebec, Montreal).

Gal4-LXRβ = Gal4-LXRβ (Homo sapiens, UniProt P55055); assay: HEK293 Gal4-nuclear receptor chimera luciferase reporter assay; assay type: cell-based; details: T0901317 1 μM, T0314407 5 μM, 20 h
Sequence of Gal4-LXRβ (P55055 222-460 limits assumed): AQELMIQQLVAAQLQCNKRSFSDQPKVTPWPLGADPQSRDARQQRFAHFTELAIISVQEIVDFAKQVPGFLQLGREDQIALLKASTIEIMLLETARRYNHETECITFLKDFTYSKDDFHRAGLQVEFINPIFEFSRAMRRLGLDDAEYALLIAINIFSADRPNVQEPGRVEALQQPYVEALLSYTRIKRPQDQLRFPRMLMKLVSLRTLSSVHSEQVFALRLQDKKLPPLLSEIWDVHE
Sequence of Gal4-LXRβ (P04386 1-147 partner limits assumed): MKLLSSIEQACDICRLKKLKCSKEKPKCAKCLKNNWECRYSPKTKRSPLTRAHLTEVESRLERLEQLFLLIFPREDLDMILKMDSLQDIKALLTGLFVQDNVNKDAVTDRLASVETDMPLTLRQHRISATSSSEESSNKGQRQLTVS
From the text: (§1) FIG. 7. (A) Dose responses to LXR ligands in an HEK293 transient transfection assay using a wild-type LXRα expression plasmid and a luciferase reporter gene containing two copies of an LXR response element. DMSO treatments were used to derive the basal level of activation. […] HEK293 cells were cotransfected with a luciferase reporter gene containing four copies of the Gal4 DNA-binding site and the various chimeric Gal4 (DNA-binding domain)-nuclear receptor (ligand-binding domain) proteins shown.
(§2) HEK293 cells were cotransfected with a luciferase reporter gene and the various Gal4-nuclear receptor chimeric constructs shown and a β-galactosidase (β-gal) expression vector for normalization. Transfected cells were treated with the indicated compounds for 20 h before being harvested. Transfection data and luciferase results are normalized to β-gal and expressed as the fold-induction relative to DMSO controls.
(§3) PXR, a nuclear receptor involved in the CYP3A-mediated metabolism of a diverse collection of xenobiotics, is known to be activated by a large number of synthetic compounds (Jones et al., Mol. Endocrinol. 14:27-39 (2000)).

Gal4-LXRα = Gal4-LXRα (Homo sapiens, UniProt Q13133); assay: as above; assay type: cell-based; details: T0901317 1 μM, T0314407 5 μM, 20 h
Sequence of Gal4-LXRα (Q13133 209-447 limits assumed): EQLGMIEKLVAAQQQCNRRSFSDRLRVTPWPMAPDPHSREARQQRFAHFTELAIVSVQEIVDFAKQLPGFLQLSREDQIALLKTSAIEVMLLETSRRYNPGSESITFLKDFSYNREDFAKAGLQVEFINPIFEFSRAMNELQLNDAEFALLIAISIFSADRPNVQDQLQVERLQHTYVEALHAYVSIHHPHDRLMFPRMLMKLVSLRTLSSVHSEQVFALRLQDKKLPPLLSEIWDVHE
Sequence of Gal4-LXRα (P04386 1-147 partner limits assumed): as the sequence (P04386 1-147 partner limits assumed) above
From the text: as §1, §2, §3

steady-state mRNA levels of CYP7A1, SCD-1, and SREBP-1 (mouse liver mRNA): increased in a dose-dependent manner
transcript level of 3-hydroxy-3-methylglutaryl coenzyme A synthase (HMG CoA S) (mouse liver mRNA): consistently reduced
transactivation of chimeric Gal4-LXRβ (Gal4-LXRβ): transactivation was also noted
transcriptional activation of Gal4-LXRα (Gal4-LXRα): highest activity
Structure (SMILES): O=S(=O)(c1ccccc1)N(CC(F)(F)F)c1ccc(C(O)(C(F)(F)F)C(F)(F)F)cc1 [T0901317, N-(2,2,2-trifluoro-ethyl)-N-[4-(2,2,2-trifluoro-1-hydroxy-1-trifluoromethyl-ethyl)-phenyl]-benzenesulfonamide]
plasma VLDL-triglyceride (FPLC) (wild-type mice; wild type mice, fold increase): threefold
total plasma triglycerides (wild-type mice; wild-type mice): 225.7 ± 7 mg/dL
hepatic triglyceride (wild-type mice; wild-type mice, fold vs vehicle-treated controls): fivefold
regulation of the SREBP-1, SCD-1, FAS, or ACC gene [1]: lack of regulation
SREBP-1 expression (GEM) (HepG2 cells and mice): twofold
fatty acid synthase expression (GEM) (HepG2 cells and mice): twofold
apoAI, apoAII, apoD, apoE, MTP and NaTCP gene expression (mouse liver mRNA): remained unaffected
transcript level of squalene synthase (SQS) (mouse liver mRNA): consistently reduced
SR-BI, apoCIII and DCAT transcript levels (mouse liver mRNA; data not shown): did not appear to vary in level
hepatic ACC gene activity (Northern blot) (mouse liver mRNA; fold increase vs vehicle): twofold
hepatic FAS gene activity (Northern blot) (mouse liver mRNA; fold increase vs vehicle): threefold
hepatic SCD-1 gene activity (Northern blot) (mouse liver mRNA; fold increase vs vehicle): up to ninefold

Source: US20020048572A1, “Treatment of hypertriglyceridemia and other conditions using LXR modulators” (priority 2000, published 2002)
